Test system: CHIKV
Format: cell-based, chikungunya virus

Row | Substance | Score_si2 | Score_si3 | Score_si1 | Score_si4
1 | Hs_SULF1_4 (sense AGCATGGATTTGATTATGCAA; chemistry not given here) [reference compound] | -1.41 | – | – | –
2 | Hs_SYMPK_1 (sense CAGGAGCTGATCATCAACAAA; chemistry not given here) | – | 1.54 | – | –
3 | Hs_SYMPK_2 (sense CAGCCTGGTGACACAGTTCAA; chemistry not given here) | 1.86 | – | – | –
4 | Hs_TADA3L_1 (sense CTGACCGAACTGGACACTAAA; chemistry not given here) [reference compound] | -1.72 | – | – | –
5 | Hs_TADA3L_2 (sense ACCGACTGGCAGGATAAGAAA; chemistry not given here) [reference compound] | – | – | -1.99 | –
6 | Hs_TAZ_2 (sense CCGCCACATCTGGAACCTGAA; chemistry not given here) | – | – | 2.45 | –
7 | Hs_TGIF_1 (sense TACCCAGAGGACACTTGTAAA; chemistry not given here) | – | – | 1.41 | –
8 | Hs_TGIF_4 (sense TACCACTGTGACTGCATTGAA; chemistry not given here) | – | – | – | 0.65
9 | Hs_TGIF_6 (sense TCCAAGAACTATAAACTTAAA; chemistry not given here) | – | 1 | – | –
10 | Hs_THRAP6_1 (sense ATGAAAGATTATTGTAATAAA; chemistry not given here) [reference compound] | -1.47 | – | – | –
11 | Hs_THRAP6_6 (sense CTGAGATTGGTATATGACAAA; chemistry not given here) [reference compound] | – | – | -1.48 | –
12 | Hs_TMPIT_1 (sense CTGGTGGGTGTTCCATCACTA; chemistry not given here) | – | – | 2.87 | –
13 | Hs_TOR2A_2 (CACGGGTGGCGAGCAGATCAA; chemistry not given here) | – | – | 2.35 | –
14 | Hs_TRAF2_2 (CAGAGTTATTAAACCATTCAA; chemistry not given here) [reference compound] | -0.92 | – | – | –
15 | Hs_TRAF2_4 (CTGGACCAAGACAAGATTGAA; chemistry not given here) [reference compound] | – | – | -1.15 | –
16 | Hs_TRAF2_5 (CACGAGGGCATATATGAAGAA; chemistry not given here) [reference compound] | – | – | – | -0.76
17 | Hs_TREX2_1 (CACAATGGCTTTGATTATGAT; chemistry not given here) [reference compound] | – | – | -2.42 | –
18 | Hs_TRRAP_1 (AAGATTCGACAGCAAGTTAAA; chemistry not given here) | – | – | – | 1.01
19 | Hs_TUSC1_1 (TCCCTGTACATCTAATATATA; chemistry not given here) [reference compound] | – | – | -1.75 | –
20 | Hs_TUSC1_2 (ACCGATCATTCTATTATCATT; chemistry not given here) [reference compound] | -1.18 | – | – | –
21 | Hs_U2AF2_3 (TAAGACGAATTTGCTCATTAA; chemistry not given here) | – | – | 2.74 | –
22 | Hs_UBE2C_3 (GCCCTTGTATATTAAATAAAT; chemistry not given here) [reference compound] | – | – | – | -0.41
23 | Hs_UBE2C_4 (CAGGACCATTCTGCTCTCCAT; chemistry not given here) [reference compound] | – | -0.75 | – | –
24 | Hs_UBE2C_8 (GAGCCCTTGTATATTAAATAA; chemistry not given here) [reference compound] | – | – | -1.05 | –
25 | Hs_UBE2C_9 (AGCCCTTGTATATTAAATAAA; chemistry not given here) [reference compound] | -0.83 | – | – | –
26 | Hs_UIP1_3 (CTCGAGGGTCTGTATATCACA; chemistry not given here) [reference compound] | – | – | – | 0.1
27 | Hs_ULK2_6 (CAGCCTGAGATACGTGCCTTA; chemistry not given here) [reference compound] | – | – | -2.62 | –

Row | Substance | Score_si2 | Score_si3 | Score_si1 | Score_si4
28 | Hs_UMPS_1 (CACCGCATTGATACTATAATA; chemistry not given here) | – | – | – | 1.35
29 | Hs_UMPS_2 (CAGGAGAAACCTGTTTAATCA; chemistry not given here) | – | – | 3.14 | –
30 | Hs_UMPS_4 (AAGCTTCTCAGGCTTATGCAA; chemistry not given here) | – | 1.59 | – | –
31 | Hs_UQCRFS1_1 (CAGCATGATCTAGATCGAGTA; chemistry not given here) | – | – | 3.18 | –
32 | Hs_UQCRFS1_2 (CAAACATTAATGTGAAATAAA; chemistry not given here) | – | – | – | 0.3
33 | Hs_WDR40A_1 (CAGCATCAATGTGATTAGTAA; chemistry not given here) [reference compound] | – | – | -2.68 | –
34 | Hs_WDR40A_2 (AACACTGATAATAGGAAGTAA; chemistry not given here) [reference compound] | – | – | – | -0.22
35 | Hs_WIG1_1 (CAGCATTTAGAGAGCAAGCAA; chemistry not given here) | – | – | 2.55 | –
36 | Hs_WIG1_2 (CAGGCTCATTATCAGGGTAAA; chemistry not given here) | – | – | – | -0.33
37 | Hs_XRN1_1 (CAGGTCGTAAATATCAAATAA; chemistry not given here) | – | 1.08 | – | –
38 | Hs_XRN1_2 (AAGGAAATAGATAAACTGTAA; chemistry not given here) | – | – | 1.94 | –
39 | Hs_YEATS4_1 (AAGGGTGTTACTATCGTTAAA; chemistry not given here) | – | – | 1.23 | –
40 | Hs_YEATS4_2 (TTGGTAGTAAGCTAAACTGAA; chemistry not given here) | 1.07 | – | – | –
41 | Hs_YEATS4_3 (AAAGGGTGTTACTATCGTTAA; chemistry not given here) | – | 0.92 | – | –
42 | Hs_ZA20D1_1 (AAGGAGGTTCTCAGTCAATAA; chemistry not given here) | 1.25 | – | – | –
43 | Hs_ZA20D1_2 (CAGGATGACATCGTTCAAGAA; chemistry not given here) | – | 1.15 | – | –
44 | Hs_ZBTB24_1 (CTCCAGGAAATTAAATATTTA; chemistry not given here) | 1.74 | – | – | –
45 | Hs_ZBTB24_2 (CAGCATGTGTCTGTAATTGTA; chemistry not given here) | – | – | 2.57 | –
46 | Hs_ZNF261_1 (AAGGTCTTATCTGAAAGGTAA; chemistry not given here) [reference compound] | – | – | -2.35 | –
47 | Hs_ZZZ3_1 (CAGCCTGATGGGAACACTAAA; chemistry not given here) [reference compound] | – | – | -2.9 | –
48 | Hs_ZZZ3_2 (TAGGAATTTACCTGAATATAA; chemistry not given here) [reference compound] | -2.58 | – | – | –
49 | n268452 (AGCTGGCCATCGAAAGGTA; chemistry not given here) | – | – | 0.81 | –
50 | s29 (CCCATAATATCATTGAGAA; chemistry not given here) | 1.87 | – | – | –
51 | s79 (sense CCAGCTATCTATAACCTTA; chemistry not given here) | – | – | – | 2.02
52 | s81 (sense GGATGATTTAGAATTGTCA; chemistry not given here) | – | 2.08 | – | –
53 | s322 (GGTTGTCCTTGAGTAATAA; chemistry not given here) | – | – | 1.71 | –
54 | s617 (sense GGTCTTGGAGGGAATCCTA; chemistry not given here) | 1.33 | – | – | –

Row | Substance | Score_si2 | Score_si3 | Score_si1 | Score_si4
55 | s619 (sense CTGCAGTTGTGGTTGGATA; chemistry not given here) | – | – | 1.92 | –
56 | s915 (CATCCAGTCTGTATACGAA; chemistry not given here) | – | – | 1.9 | –
57 | s916 (GCATCGCAAACTTCACCAA; chemistry not given here) | – | 1.06 | – | –
58 | s922 (CATTAACATTGTTCGCAAA; chemistry not given here) | – | – | – | 1.81
59 | s923 (AATTCAAGCTATGAAGATA; chemistry not given here) | 1.99 | – | – | –
60 | s992 (GTGTTTTTCCGTAAGCATA; chemistry not given here) [reference compound] | – | -0.52 | – | –
61 | s993 (GGTGCGTCATATGCAGGAA; chemistry not given here) [reference compound] | -0.55 | – | – | –
62 | s994 (GAGGAAGTCCTAAATCACA; chemistry not given here) [reference compound] | – | – | – | 1.87
63 | s1522 (sense GGATCAAGCTGCCCATCTA; chemistry not given here) | 1.17 | – | – | –
64 | s1523 (sense CCGGCATCTTTGCTACCTA; chemistry not given here) | – | – | – | 0.87
65 | s1698 (CGAACTACACCTTCAGCTA; chemistry not given here) [reference compound] | – | -0.99 | – | –
66 | s1907 (sense GAACTTAGCTAAATTGACT; chemistry not given here) | – | – | – | 0.58
67 | s2529 (sense GCACCCGGTTTATCAGTAA; chemistry not given here) | – | – | – | 0.17
68 | s2664 (sense CGTCCATGTTTATCTACAA; chemistry not given here) | – | – | – | 0.12
69 | s2665 (sense GCTTCAGGATGTGCCCAAA; chemistry not given here) | – | 0.58 | – | –
70 | s2822 (sense TGCTGACTTTTAACCCACA; chemistry not given here) | – | – | – | 1
71 | s3112 (GGATGAGATTCTAGACTTT; chemistry not given here) | – | 1.86 | – | –
72 | s3113 (GGCGAGAGGGTATCAAGTA; chemistry not given here) | – | – | – | 1.79
73 | s3114 (GAAGAGCAGTCACAGATCA; chemistry not given here) | 2.05 | – | – | –
74 | s3145 (GACCCTTACCTGGAAGTTT; chemistry not given here) | 0.19 | – | – | –
75 | s3146 (GACCATGGATAATAAGAAA; chemistry not given here) | – | – | – | -0.15
76 | s3162 (CATTTCGACTGGATCATAT; chemistry not given here) | – | – | 1.86 | –
77 | s3163 (CTATCTTGGGTTTACCGTA; chemistry not given here) | 1.54 | – | – | –
78 | s3625 (CAGTGAAGCTAGAATCTCA; chemistry not given here) | – | – | – | 1.54
79 | s3626 (GAATTTGCGATGTACTTAA; chemistry not given here) | 1.98 | – | – | –
80 | s4917 (sense GTGTATGAGTTTAGAGTCA; chemistry not given here) | 1.15 | – | – | –
